For 20 molecules, Ki results are on record in US8592383B2, “Cycloalkyl-fused tetrahydroquinolines as CRTH2 receptor modulators” (Merck Sharp & Dohme Corp., priority 2011, dated 2013).

The first experiment concerns the target T1, hCRTH2 (Homo sapiens, UniProt Q9Y5Y4).
T1 sequence (Q9Y5Y4 1-395): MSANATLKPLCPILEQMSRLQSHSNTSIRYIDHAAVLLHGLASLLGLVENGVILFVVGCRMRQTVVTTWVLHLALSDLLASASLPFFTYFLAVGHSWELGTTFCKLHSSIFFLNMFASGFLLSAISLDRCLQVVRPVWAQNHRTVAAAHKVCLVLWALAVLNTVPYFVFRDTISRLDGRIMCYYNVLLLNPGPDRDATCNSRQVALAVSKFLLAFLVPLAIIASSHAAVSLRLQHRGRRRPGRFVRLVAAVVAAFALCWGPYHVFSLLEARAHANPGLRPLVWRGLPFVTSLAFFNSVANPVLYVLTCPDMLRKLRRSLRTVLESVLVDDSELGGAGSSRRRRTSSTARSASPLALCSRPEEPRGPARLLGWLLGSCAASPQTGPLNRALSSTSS
The experiment can be described thus: biochemical. Conditions: Ki, Radioligand Binding Assay A; 3.0 nM [3H]PGD2, HEK-hCRTH2 membranes.
Procedure: Competing ligands were diluted in dimethylsulfoxide (Me2SO) that was kept constant at 1% (v/v) of the final incubation volume. The reaction was initiated by the addition of 8-20 g of membrane protein prepared from a human embryonic kidney (HEK)-hCRTH2 cell line. Total and non-specific binding were determined in the absence and the presence of 10 μM PGD2, respectively. Under these conditions, specific binding (total minus non-specific) of the radioligand to the receptor reached equilibrium within 50 min and was stable up to 180 min. The reaction was routinely conducted for 60 min at room temperature and terminated by rapid filtration through prewetted (0.3% polyethyleneimine) 96-well printed Filtermate™ (Wallac) using a Tomtec® harvester (Hamden, Conn.). After washing with cold buffer, the filter was dried for 2 minutes in microwave, and Meltilex Scintillator sheet (Wallac) was melted on for 2 min.
Molecule `CCN(C(=O)CCC(=O)O)C1c2ccccc2N(C(=O)OCc2ccc(F)c(F)c2)C2CCCC12` (single isomer, unassigned) [compound 72, 4-[(3,4-difluorophenyl)methyl] cis, cis-[(3-carboxy-1-oxopropyl)ethylamino]-1,2,3,3a,9,9a-hexahydro-4H-cyclopenta[b]quinoline-4-carboxylate] returned a Ki of 15.7 nM.

As to `O=C(O)CCCN(C1CC1)C1c2ccccc2N(C(=O)OCc2ccccc2)C2CCCC21` (single isomer, unassigned) [compound 60, 4-(phenylmethyl) cis, cis-[(3-carboxypropyl)cyclopropylamino]-1,2,3,3a,9,9a-hexahydro-4H-cyclopenta[b]quinoline-4-carboxylate], the affinity, expressed as Ki, was 21.2 nM. Still for that read-out and setting: next, `O=C(O)CCC(=O)N(C1CCC1)C1c2ccc(Cl)cc2N(C(=O)c2ccc(F)c(F)c2)C2CCCC21` (single isomer, unassigned) [17Co, 4-[[cis,cis-6-chloro-4-(3,4-difluorobenzoyl)-2,3,3a,4,9,9a-hexahydro-1H-cyclopenta[b]quinolin-9-yl]cyclobutylamino]-4-oxobutanoic acid]: 10.9 nM; `O=C(O)COC(=O)N(C1CC1)C1c2ccccc2N(c2nnc(Cc3ccc(OC(F)(F)F)cc3)o2)C2CCCC21` (single isomer, unassigned) [38G, [[[cyclopropyl[cis,cis-2,3,3a,4,9,9a-hexahydro-4-[5-[[4-(trifluoromethoxy)phenyl]methyl]-1,3,4-oxadiazol-2-yl]-1H-cyclopenta[b]quinoline-9-yl]amino]carbonyl]oxy]acetic acid]: 638 nM; `O=C(O)CCC(=O)N(C1CC1)C1c2cc(F)ccc2N(C(=O)c2ccc(OC(F)(F)F)cc2)C2CCCC21` (single isomer, unassigned) [compound 134, 4-[cyclopropyl[cis, cis-7-fluoro-2,3,3a,4,9,9a-hexahydro-4-[4-(trifluoromethoxy)benzoyl]-1H-cyclopenta[b]quinolin-9-yl]amino]-4-oxobutanoic acid]: 236 nM.

The target of the next experiment is T1, hCRTH2.
Assay: not given
More on the design: expressed in transfected cells; host or cells: HEK (human embryonic kidney) cells expressing hCRTH2. The settings on record: Radioligand Binding Assay B; 0.7 nM [3H]PGD2, HEK-hCRTH2 membranes. As to the method:
The filters were then washed with 4 mL of the same buffer and residual radioligand bound to the filter was determined by liquid scintillation counting following equilibration in 25 μl Ultima Gold F™ (Unifilter) (Packard).
As to `O=C(O)CCC(=O)N(C1CC1)C1c2ccccc2N(C(=O)c2ccsc2)C2CCCC21` (racemic) [14E, 4-{cyclopropyl[cis,cis-4-(thiophen-3-ylcarbonyl)-2,3,3a,4,9,9a-hexahydro-1H-cyclopenta[b]quinolin-9-yl]amino}-4-oxobutanoic acid], the affinity corresponds to a Ki of 9.9 nM. The same measure, in the same setting: next, `O=C(O)CCC(=O)N(C1CC1)C1c2ccccc2N(C(=O)OCc2ccc(Cl)cc2)C2CCCC21` (racemic) [21A, 4-{[cis, cis-4-{[(4-chlorobenzyl)oxy]carbonyl}-2,3,3a,4,9,9a-hexahydro-1H-cyclopenta[b]quinolin-9-yl](cyclopropyl)amino}-4-oxobutanoic acid]: 45.7 nM; `CC(CC(=O)N(C1CC1)C1c2ccccc2N(C(=O)OCc2ccccc2)C2CCCC21)C(=O)O` (racemic) [compound 10, 4-[{cis,cis-4-[(Benzyloxy)carbonyl]-2,3,3a,4,9,9a-hexahydro-1H-cyclopenta[b]quinolin-9-yl}(cyclopropyl)amino]-2-methyl-4-oxobutanoic acid]: 514 nM. In turn, `COC(=O)CCC(=O)N(C1CC1)C1c2ccccc2N(C(=O)c2ccc(Cl)cc2)C2CCCC21` (racemic) [14P, methyl 4-[{cis,cis-4-[(4-chlorophenyl)carbonyl]-2,3,3a,4,9,9a-hexahydro-1H-cyclopenta[b]quinolin-9-yl}(cyclopropyl)amino]-4-oxobutanoate] had a Ki of 414 nM.

The experiment is the same for the next values; noted with them: Radioligand Binding Assay B; Table B, rated A-D.
The molecule `O=C(O)CCC(=O)N(C1CC1)C1c2ccccc2N(C(=O)c2cccnc2)C2CCCC21` (racemic) [14i, 4-{cyclopropyl[cis,cis-4-(pyridin-3-ylcarbonyl)-2,3,3a,4,9,9a-hexahydro-1H-cyclopenta[b]quinolin-9-yl]amino}-4-oxobutanoic acid] gave a Ki of 20.1 to 200 nM.

Turning to `O=C(O)CCC(=O)N(C1CC1)[C@@H]1c2ccccc2N(C(=O)N2CCc3ccccc32)[C@@H]2CCC[C@@H]21` (racemic) [compound 23, 4-{Cyclopropyl[cis,cis-4-(2,3-dihydro-1H-indol-1-ylcarbonyl)-2,3,3a,4,9,9a-hexahydro-1H-cyclopenta[b]quinolin-9-yl]amino}-4-oxobutanoic acid], the inhibitory constant (Ki) lay within 20.1 to 200 nM. On the same count and under the same terms, the value for `COc1ccc(C(=O)N2c3ccccc3C(N(C(=O)CCC(=O)O)C3CC3)C3CCCC32)cc1` (racemic) [14L, 4-(cyclopropyl{cis,cis-4-[(4-methoxyphenyl)carbonyl]-2,3,3a,4,9,9a-hexahydro-1H-cyclopenta[b]quinolin-9-yl}amino)-4-oxobutanoic acid] was 20.1 to 200 nM. Still for that read-out and setting: the value for `CC(OC(=O)N1c2ccccc2C(N(C(=O)CCC(=O)O)C2CC2)C2CCCC21)c1ccccc1` (racemic) [21F, 4-(cyclopropyl{cis, cis-4-[(1-phenylethoxy)carbonyl]-2,3,3a,4,9,9a-hexahydro-1H-cyclopenta[b]quinolin-9-yl}amino)-4-oxobutanoic acid] was 20.1 to 200 nM; that for `O=C(O)CCC(=O)N(C1CC1)C1c2ccccc2N(C(=O)c2ccsc2)C2CCCC21` (racemic) [14E, 4-{cyclopropyl[cis,cis-4-(thiophen-3-ylcarbonyl)-2,3,3a,4,9,9a-hexahydro-1H-cyclopenta[b]quinolin-9-yl]amino}-4-oxobutanoic acid] was 5.1 to 20 nM; that for “4-{cyclopropyl[cis,cis-6-fluoro-4- (phenylcarbonyl)-2,3,3a,4,9,9a- hexahydro-1H- cyclopenta[b]quinolin-9-yl]amino}- 4-oxobutanoic acid [16D]” was 20.1 to 200 nM. As to `O=C(O)CCC(=O)N(C1CC1)C1c2ccccc2N(C(=O)OCc2ccc(Cl)cc2)C2CCCC21` (racemic) [21A, 4-{[cis, cis-4-{[(4-chlorobenzyl)oxy]carbonyl}-2,3,3a,4,9,9a-hexahydro-1H-cyclopenta[b]quinolin-9-yl](cyclopropyl)amino}-4-oxobutanoic acid], the inhibitory constant (Ki) lay within 20.1 to 200 nM.

Molecule `O=C(O)CCC(=O)N(c1ccccc1)C1c2ccccc2N(C(=O)c2cccnc2)C2CCCC21` (racemic) [12D, 4-oxo-4-{phenyl[cis,cis-4-(pyridin-3-ylcarbonyl)-2,3,3a,4,9,9a-hexahydro-1H-cyclopenta[b]quinolin-9-yl]amino}butanoic acid] returned an inhibitory constant (Ki) of 5.1 to 20 nM.

`CC(CC(=O)N(C1CC1)C1c2ccccc2N(C(=O)OCc2ccccc2)C2CCCC21)C(=O)O` (racemic) [compound 10, 4-[{cis,cis-4-[(Benzyloxy)carbonyl]-2,3,3a,4,9,9a-hexahydro-1H-cyclopenta[b]quinolin-9-yl}(cyclopropyl)amino]-2-methyl-4-oxobutanoic acid] came in with a Ki of 201 to 7500 nM. Still for that read-out and setting: next, `O=C(O)CCC(=O)N(C1CC1)C1c2ccccc2N(c2nnc(-c3ccccc3)o2)C2CCCC21` (racemic) [36A, racemic 4-{cyclopropyl[cis, cis-4-(5-phenyl-1,3,4-oxadiazol-2-yl)-2,3,3a,4,9,9a-hexahydro-1H-cyclopenta[b]quinolin-9-yl]amino}-4-oxobutanoic acid]: 20.1 to 200 nM.

`COC(=O)CCC(=O)N(C1CC1)C1c2ccccc2N(C(=O)c2ccc(Cl)cc2)C2CCCC21` (racemic) [14P, methyl 4-[{cis,cis-4-[(4-chlorophenyl)carbonyl]-2,3,3a,4,9,9a-hexahydro-1H-cyclopenta[b]quinolin-9-yl}(cyclopropyl)amino]-4-oxobutanoate] came in with a Ki of 201 to 7500 nM. In the case of `COC(=O)CCC(=O)N(c1ccccc1)[C@@H]1c2ccccc2N(C(=O)OCc2ccccc2)[C@@H]2CCC[C@@H]21` (racemic) [compound 12, Benzyl cis,cis-9-[(4-methoxy-4-oxobutanoyl)(phenyl)amino]-1,2,3,3a,9,9a-hexahydro-4H-cyclopenta[b]quinoline-4-carboxylate], the Ki lay within 201 to 7500 nM.

As to `CC(C)(C)COC(=O)N1c2ccccc2C(N(C(=O)CCC(=O)O)C2CC2)C2CCCC21` (racemic) [21H, 4-(cyclopropyl{cis, cis-4-[(2,2-dimethylpropoxy)carbonyl]-2,3,3a,4,9,9a-hexahydro-1H-cyclopenta[b]quinolin-9-yl}amino)-4-oxobutanoic acid], the Ki was in the range of 201 to 7500 nM. Still for that read-out and setting: the value for `CCN(C(=O)CCC(=O)O)C1c2ccccc2N(C(=O)c2ccccc2)C2CCCC12` (racemic) [13D, 4-{ethyl[cis,cis-4-(phenylcarbonyl)-2,3,3a,4,9,9a-hexahydro-1H-cyclopenta[b]quinolin-9-yl]amino}-4-oxobutanoic acid] was 5.1 to 20 nM. The same measure, in the same setting: next, `CCN(C(=O)CCC(=O)O)C1c2ccccc2N(C(=O)c2ccc(OC(F)(F)F)cc2)C2CCCC12` (racemic) [13C, 4-{ethyl [cis,cis-4-{[4-(trifluoromethoxy)phenyl]carbonyl}-2,3,3a,4,9,9a-hexahydro-1H-cyclopenta[b]quinolin-9-yl]amino}-4-oxobutanoic acid]: 5.1 to 20 nM.

In general, Ki refers to the equilibrium dissociation constant of an inhibitor or competing ligand from its target.
